The numbers were not newly measured in patent US20260157999A1, “[…] OF ALKALOID COMPOUNDS AND […] USES THEREOF” (Sensorium Therapeutics, Inc., priority 2021, published 2026), which cites them from elsewhere.

The conditions of the data set: described pharmacokinetics, rapid metabolism and excretion.

As to `COc1ccc(C23CCC(=O)CC2N(C)CC3)cc1OC` (stereo not shown) [Mesembrine, 3a-(3,4-dimethoxyphenyl)-octahydro-1-methyl-6H-indol-6-one], the half-life in plasma entry is given as “less than 2 hours”.
